# Target: mTOR (Homo sapiens, UniProt P42345)
# Assay: Inhibition of mTOR
# Type: biochemical
# Conditions: IC50
row,Structure (SMILES),IC50 [nM]
1,O=C(O)c1ccc(C#Cc2n[nH]c3ccccc23)cc1,31000
2,Cn1cncc1C#Cc1n[nH]c2ccccc12,> 100000

# Same assay, conditions: read-out: mTOR (Inhibition % at 50 μM, or IC50); inhibition at 50 μM
row,Structure (SMILES),inhibition at 50 µM [%]
1,Cn1cncc1C#Cc1n[nH]c2cc(C(=O)NC(c3ccncc3)c3ccc(Cl)cc3)ccc12 (stereo not shown),-27
2,Nc1ccc(C#Cc2n[nH]c3ccccc23)cc1,9
3,C(#Cc1n[nH]c2ncccc12)c1ccccn1,7
4,O=[N+]([O-])c1ccc2c(C#Cc3ccccc3)n[nH]c2c1,-1
5,Cn1cncc1C#Cc1n[nH]c2cc(C(=O)NC34CC5CC(CC(C5)C3)C4)ccc12,-11
6,Cn1cncc1C#Cc1n[nH]c2cc(C(=O)NCc3ccccn3)ccc12,-17
7,C(#Cc1n[nH]c2ccccc12)c1ccncc1,30
8,C(#CC1CC1)c1n[nH]c2ccccc12,2
9,C(#Cc1n[nH]c2ccccc12)c1ccsc1,7
10,C(#Cc1n[nH]c2ccccc12)c1ccccn1,13
11,COC(=O)c1ccc2c(C#Cc3cncn3C)n[nH]c2c1,4
12,Fc1cc(F)cc(C#Cc2n[nH]c3ccccc23)c1,6
13,C(#Cc1n[nH]c2ncccc12)c1ccncc1,15
14,Cn1cncc1C#Cc1n[nH]c2cc(C(=O)NCc3ccco3)ccc12,-5
15,FC(F)(F)c1cc(C#Cc2n[nH]c3ccccc23)cc(C(F)(F)F)c1,-3
16,Cn1cncc1C#Cc1n[nH]c2cc(C(=O)O)ccc12,24
17,C(#Cc1n[nH]c2ccccc12)c1ccccc1,6
18,N#Cc1ccc(C#Cc2n[nH]c3ccccc23)cc1,1
19,Cn1cncc1C#Cc1n[nH]c2cc(C(=O)NCc3cc4ccccc4[nH]3)ccc12,3
20,C(#CC1CCCC1)c1n[nH]c2ccccc12,3
21,Nc1cccc(C#Cc2n[nH]c3ccccc23)c1,9
22,CC(C)(C)OC(=O)NCCCCCNC(=O)c1ccc(C#Cc2n[nH]c3ccccc23)cc1,-6
23,NCCCCCNC(=O)c1ccc(C#Cc2n[nH]c3ccccc23)cc1,3
24,Cc1ccc2[nH]c(C(C)NC(=O)c3ccc4c(C#Cc5cncn5C)n[nH]c4c3)nc2c1 (stereo not shown),-7
25,COc1ccc(C#Cc2n[nH]c3ccccc23)cc1,5
26,Cn1cncc1C#Cc1n[nH]c2ccccc12,46
27,C(#Cc1n[nH]c2ccccc12)c1cccnc1,34
28,Cn1cncc1C#Cc1n[nH]c2cc(C(=O)NCc3cccs3)ccc12,-14
29,COc1ccc2cc(C#Cc3n[nH]c4ccccc34)ccc2c1,5

# Target: PI3 K P110α (Homo sapiens, UniProt P42336)
# Sequence (P42336 whole entry): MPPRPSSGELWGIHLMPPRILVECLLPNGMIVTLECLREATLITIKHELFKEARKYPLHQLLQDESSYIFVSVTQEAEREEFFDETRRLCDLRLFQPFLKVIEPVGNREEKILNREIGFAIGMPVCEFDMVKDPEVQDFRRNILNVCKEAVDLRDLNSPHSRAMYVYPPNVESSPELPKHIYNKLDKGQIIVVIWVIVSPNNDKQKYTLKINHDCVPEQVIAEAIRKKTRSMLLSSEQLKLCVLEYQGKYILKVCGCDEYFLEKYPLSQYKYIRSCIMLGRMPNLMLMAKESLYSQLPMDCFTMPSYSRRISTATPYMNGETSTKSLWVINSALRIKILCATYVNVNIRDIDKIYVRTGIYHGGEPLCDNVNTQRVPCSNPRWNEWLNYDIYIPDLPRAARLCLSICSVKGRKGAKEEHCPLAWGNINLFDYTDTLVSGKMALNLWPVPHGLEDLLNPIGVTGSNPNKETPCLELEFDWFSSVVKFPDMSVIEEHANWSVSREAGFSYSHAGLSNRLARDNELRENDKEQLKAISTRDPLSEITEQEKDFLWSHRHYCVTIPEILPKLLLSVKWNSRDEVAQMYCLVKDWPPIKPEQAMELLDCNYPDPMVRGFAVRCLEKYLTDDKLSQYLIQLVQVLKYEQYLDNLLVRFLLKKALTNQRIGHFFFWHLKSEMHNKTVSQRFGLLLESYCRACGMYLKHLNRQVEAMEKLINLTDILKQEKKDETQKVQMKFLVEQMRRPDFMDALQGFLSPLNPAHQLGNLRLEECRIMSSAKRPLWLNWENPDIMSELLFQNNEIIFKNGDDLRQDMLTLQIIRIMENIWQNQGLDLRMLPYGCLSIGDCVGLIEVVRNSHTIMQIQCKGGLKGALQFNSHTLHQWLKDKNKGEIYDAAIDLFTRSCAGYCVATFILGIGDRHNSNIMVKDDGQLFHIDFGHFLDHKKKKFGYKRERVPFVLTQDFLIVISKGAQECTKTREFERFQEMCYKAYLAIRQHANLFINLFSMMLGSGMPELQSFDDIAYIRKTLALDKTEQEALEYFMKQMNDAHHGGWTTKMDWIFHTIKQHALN
# Sequence (P27986 whole entry partner): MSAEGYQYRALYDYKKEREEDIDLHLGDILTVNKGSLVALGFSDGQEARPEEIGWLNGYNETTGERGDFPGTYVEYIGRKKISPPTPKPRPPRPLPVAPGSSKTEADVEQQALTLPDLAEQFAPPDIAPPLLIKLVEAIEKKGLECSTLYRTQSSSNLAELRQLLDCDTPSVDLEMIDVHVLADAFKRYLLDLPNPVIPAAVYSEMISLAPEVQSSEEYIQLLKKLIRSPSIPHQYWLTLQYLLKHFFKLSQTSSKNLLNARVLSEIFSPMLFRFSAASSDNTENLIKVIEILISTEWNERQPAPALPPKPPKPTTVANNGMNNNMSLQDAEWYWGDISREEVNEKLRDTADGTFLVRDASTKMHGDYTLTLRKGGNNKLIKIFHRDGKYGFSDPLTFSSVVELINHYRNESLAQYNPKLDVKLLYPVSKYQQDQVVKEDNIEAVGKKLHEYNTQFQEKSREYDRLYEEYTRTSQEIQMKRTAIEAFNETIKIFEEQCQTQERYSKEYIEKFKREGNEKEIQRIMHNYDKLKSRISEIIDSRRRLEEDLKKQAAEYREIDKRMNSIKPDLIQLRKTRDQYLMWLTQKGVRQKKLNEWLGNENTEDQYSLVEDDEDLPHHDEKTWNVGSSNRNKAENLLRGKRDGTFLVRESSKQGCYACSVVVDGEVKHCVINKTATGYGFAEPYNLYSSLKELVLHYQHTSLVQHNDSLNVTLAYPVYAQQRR
# Assay: Inhibition of PI3K (P110α)
# Type: biochemical
# Conditions: values printed without % sign, read as IC50, read-out: PI3 K (% at 25 μM, or IC50), P110α
row,Structure (SMILES),IC50 [nM]
1,Nc1ccc(C#Cc2n[nH]c3ccccc23)cc1,83
2,COc1ccc(C(NC(=O)c2ccc3c(C#Cc4cncn4C)n[nH]c3c2)c2ccncc2)cc1 (stereo not shown),82
3,Cn1cncc1C#Cc1n[nH]c2ccccc12,62

# From patent US7951832B2, “Pyrazole derivatives as kinase inhibitors” (Burnham Institute for Medical Research, priority 2007, dated 2011)
